{"source": "patent US9365522B2", "about": "“Pyrazole amide derivative” (AMGEN INC., priority 2015, dated 2016)", "target": "T1, human RORγ-LBD (Homo sapiens, UniProt P51449)", "T1 construct": "made in house; host or cells: E. coli (BL-21)", "T1 sequence (P51449 262-518)": "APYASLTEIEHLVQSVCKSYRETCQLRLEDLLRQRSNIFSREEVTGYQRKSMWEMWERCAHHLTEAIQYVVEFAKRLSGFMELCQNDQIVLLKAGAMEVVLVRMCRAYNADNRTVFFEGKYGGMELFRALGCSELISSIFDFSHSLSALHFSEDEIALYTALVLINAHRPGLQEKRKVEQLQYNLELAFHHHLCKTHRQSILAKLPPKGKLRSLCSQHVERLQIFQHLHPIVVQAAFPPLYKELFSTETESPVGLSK", "experiment": "ROR gamma coactivator peptide recruitment Alphascreen assay (RORγ-LBD binding to GRIP1 coactivator peptide)", "assay_type": "biochemical", "conditions": "5 nM human RORγ-LBD, 30 nM 7-β-hydroxycholesterol, 50 nM biotinylated GRIP1 coactivator peptide, overnight incubation at room temperature; read-out: result (pIC50, RORγ coactivator peptide recruitment Alphascreen assay) (converted)", "excerpt": "Alphascreen™ is a bead-based amplified homogenous luminescent proximity assay that can be used for measuring the effect of compounds on protein-protein interactions. When biological interactions bring donor and acceptor beads into close proximity, reactive oxygen, generated upon laser excitation of the donor beads, initiates a luminescence/fluorescence cascade in the acceptor beads that leads to a highly amplified signal that can be measured as light in the 520-620 nm range. When the acceptor and donor beads are not in proximity, the reactive oxygen decays and only a very low background signal is generated.\nAn in vitro assay to assess inhibition of RORγ binding to the coactivator GRIP1 was established using Alphascreen™ technology. The interaction between nuclear receptors (NR) and coactivator proteins is a key step in signal transduction from the receptor to the transcriptional machinery and can be measured in vitro using only the ligand binding domain of the nuclear receptor and a peptide containing a coactivator protein LXXLL nuclear receptor binding motif\nFor the RORγ construct used in the coactivator recruitment assay, nucleotides corresponding to the ligand binding domain (LBD) of wild type human RORγ (amino acids 262-518 of Genbank Accession No. NM_005060.3) were cloned into the pET24 expression vector (Novagen), downstream of in-frame N-terminal 6×His and Flag tag sequences. Recombinant 6×His:Flag-tagged human RORγ-LBD protein was expressed in E. coli (BL-21) and purified by affinity chromatography on a nickel Sepharose column, followed by anion exchange chromatography.\nA 4× assay mixture of 6×His:Flag-tagged human RORγ-LBD with the agonist ligand 7-β-hydroxycholesterol was prepared in assay buffer (50 mM HEPES pH 7.4, BSA 0.05%, 150 mM NaCl, 5 mM MgCl2, 1 mM DTT, 0.01% Tween-20). For control wells a 4× mixture of 6×His:Flag-tagged human ROR gamma LBD alone was also prepared.\nA 4× stock of biotinylated coactivator peptide containing the LXXLL motif from GRIP1 (Biotin-[…]) was prepared in assay buffer.\nA 4×detection mixture of nickel chelate Alphascreen™ acceptor beads (PerkinElmer) and streptavidin Alphascreen™ donor beads (PerkinElmer) was prepared in assay buffer.\nCompounds to be tested were arranged in a pre-dose 384-well mother plate serially diluted 1 in 2 over 22 columns, in 100% DMSO, at 40× the final test concentration, from a high concentration of 4 mM. DMSO with no compound was placed in control columns. The compounds were robotically dispensed directly into assay plates containing assay buffer to a 4× final test concentration.\nFollowing compound addition, the 6×His:Flag-tagged human RORγ-LBD plus 7-β-hydroxycholesterol assay mixture, biotinylated coactivator peptide and detection mixture were added. Final assay conditions were 5 nM 6×His:Flag-tagged human RORγ-LBD, 30 nM 7-β-hydroxycholesterol, 50 nM biotinylated coactivator peptide, 2.5 ug/ml nickel acceptor beads and 10 ug/ml streptavidin donor beads. The final concentration of DMSO in the assay was 2.5%.\nAfter overnight incubation at room temperature plates were read on and Envision™ plate reader (PerkinElmer).\nData was plotted and pIC50 values were calculated using the Genedata Screener™ data analysis suite (Genedata).", "data": [{"smiles": "COC1(CN(CC(=O)c2c(Cl)cncc2Cl)C(=O)c2cnn([C@H]3CC[C@](C)(C(=O)O)CC3)c2C(F)(F)F)CCCC1", "note": "[Example 638, trans-4-(4-((2-(3,5-dichloro-4-pyridinyl)-2-oxoethyl)((1-methoxycyclopentyl)methyl)carbamoyl)-5-(trifluoromethyl)-1H-pyrazol-1-yl)-1-methylcyclohexanecarboxylic acid]", "values": [{"measurement": "IC50", "value": 0.0155, "unit": "µM"}]}, {"smiles": "CC(C)(C)CN(CCc1c(Cl)cn2ncnc2c1Cl)C(=O)c1cnn([C@H]2CC[C@](C)(C(=O)O)CC2)c1C(F)(F)F", "note": "[Example 892, trans-4-(4-((2-(6,8-dichloro[1,2,4]triazolo[1,5-a]pyridin-7-yl)ethyl)(2,2-dimethylpropyl)carbamoyl)-5-(trifluoromethyl)-1H-pyrazol-1-yl)-1-methylcyclohexanecarboxylic acid]", "values": [{"measurement": "IC50", "value": 0.302, "unit": "µM"}]}, {"smiles": "CC1(CN(CC(=O)c2c(Cl)cncc2Cl)C(=O)c2cnn([C@H]3CC[C@](C)(C(=O)O)CC3)c2C(F)(F)F)CCC1", "note": "[Example 730, trans-4-(4-((2-(3,5-dichloro-4-pyridinyl)-2-oxoethyl)((1-methylcyclobutyl)methyl)carbamoyl)-5-(trifluoromethyl)-1H-pyrazol-1-yl)-1-methylcyclohexanecarboxylic acid]", "values": [{"measurement": "IC50", "value": 0.00355, "unit": "µM"}]}, {"smiles": "CC1(C)C[C@H]1CN(CC(=O)c1c(Cl)cncc1Cl)C(=O)c1cnn([C@H]2CC[C@](C)(C(=O)O)CC2)c1C(F)(F)F", "note": "[Example 743, trans-4-(4-((2-(3,5-dichloro-4-pyridinyl)-2-oxoethyl)(((1S)-2,2-dimethylcyclopropyl)methyl)carbamoyl)-5-(trifluoromethyl)-1H-pyrazol-1-yl)-1-methylcyclohexanecarboxylic acid]", "values": [{"measurement": "IC50", "value": 0.00224, "unit": "µM"}]}, {"smiles": "C[C@@]1(CN(CC(=O)c2c(Cl)cncc2Cl)C(=O)c2cnn([C@H]3CC[C@](C)(C(=O)O)CC3)c2C(F)(F)F)CCCO1", "note": "[Example 660, trans-4-(4-((2-(3,5-dichloro-4-pyridinyl)-2-oxoethyl)(((2S)-2-methyltetrahydro-2-furanyl)methyl)carbamoyl)-5-(trifluoromethyl)-1H-pyrazol-1-yl)-1-methylcyclohexanecarboxylic acid]", "values": [{"measurement": "IC50", "value": 0.0257, "unit": "µM"}]}, {"smiles": "C[C@H]1C[C@](C)(C(=O)O)CC[C@H]1n1ncc(C(=O)N(CC(=O)c2c(Cl)cncc2Cl)CC(C)(C)C)c1C(F)(F)F", "note": "[Example 883, (1R,3S,4R)-4-(4-((2-(3,5-dichloro-4-pyridinyl)-2-oxoethyl)(2,2-dimethylpropyl)carbamoyl)-5-(trifluoromethyl)-1H-pyrazol-1-yl)-1,3-dimethylcyclohexanecarboxylic acid]", "values": [{"measurement": "IC50", "value": 0.708, "unit": "µM"}]}, {"smiles": "Cc1cc(Cl)c(C(=O)CN(CC2CCCCC2)C(=O)c2cnn([C@H]3CC[C@](C)(C(=O)O)CC3)c2C(F)(F)F)c(Cl)n1", "note": "[Example 801, trans-4-(4-((cyclohexylmethyl)(2-(2,4-dichloro-6-methyl-3-pyridinyl)-2-oxoethyl)carbamoyl)-5-(trifluoromethyl)-1H-pyrazol-1-yl)-1-methylcyclohexanecarboxylic acid]", "values": [{"measurement": "IC50", "value": 0.00851, "unit": "µM"}]}, {"smiles": "C[C@]1(C(=O)O)CC[C@H](n2ncc(C(=O)N(CC(=O)c3c(Cl)cc(F)cc3Cl)CC3(F)CC3)c2C(F)(F)F)CC1", "note": "[Example 690, trans-4-(4-((2-(2,6-dichloro-4-fluorophenyl)-2-oxoethyl)((1-fluorocyclopropyl)methyl)carbamoyl)-5-(trifluoromethyl)-1H-pyrazol-1-yl)-1-methylcyclohexanecarboxylic acid]", "values": [{"measurement": "IC50", "value": 0.00676, "unit": "µM"}]}, {"smiles": "CC1(C)CC[C@@H](CN(CC(=O)c2c(Cl)cncc2Cl)C(=O)c2cnn([C@H]3CC[C@](C)(C(=O)O)CC3)c2C(F)(F)F)O1", "note": "[Example 673, trans-4-(4-((2-(3,5-dichloro-4-pyridinyl)-2-oxoethyl)(((2S)-5,5-dimethyltetrahydro-2-furanyl)methyl)carbamoyl)-5-(trifluoromethyl)-1H-pyrazol-1-yl)-1-methylcyclohexanecarboxylic acid]", "values": [{"measurement": "IC50", "value": 0.0363, "unit": "µM"}]}, {"smiles": "CC1(C)CC(CN(CC(=O)c2c(Cl)cccc2Cl)C(=O)c2cnn([C@H]3C[C@@H](CC(=O)O)C3)c2C(F)(F)F)C1", "note": "[Example 669, (cis-3-(4-((2-(2,6-dichlorophenyl)-2-oxoethyl)((3,3-dimethylcyclobutyl)methyl)carbamoyl) 5-(trifluoromethyl)-1H-pyrazol-1-yl)cyclobutyl)acetic acid]", "values": [{"measurement": "IC50", "value": 0.00407, "unit": "µM"}]}, {"smiles": "C[C@]1(C(=O)O)CC[C@H](n2ncc(C(=O)N(CC(=O)c3c(F)cccc3Cl)CC3(F)CCCC3)c2C(F)(F)F)CC1", "note": "[Example 643, trans-4-(4-((2-(2-chloro-6-fluorophenyl)-2-oxoethyl)((1-fluorocyclopentyl)methyl)carbamoyl)-5-(trifluoromethyl)-1H-pyrazol-1-yl)-1-methylcyclohexanecarboxylic acid]", "values": [{"measurement": "IC50", "value": 0.00427, "unit": "µM"}]}, {"smiles": "CC(C)(C)CN(CC(=O)c1c(Cl)cncc1Cl)C(=O)c1cnn([C@@H]2CC[C@@](C)(C(=O)O)C[C@@H]2F)c1C(F)(F)F", "note": "[Example 869, (1R,3S,4R)-4-(4-((2-(3,5-dichloro-4-pyridinyl)-2-oxoethyl)(2,2-dimethylpropyl)carbamoyl)-5-(trifluoromethyl)-1H-pyrazol-1-yl)-3-fluoro-1-methylcyclohexanecarboxylic acid]", "values": [{"measurement": "IC50", "value": 0.0138, "unit": "µM"}]}, {"smiles": "Cc1cc(Cl)c(C(=O)CN(CC2CCCCC2)C(=O)c2cnn([C@H]3CC[C@@H](C(=O)O)CC3)c2C(F)(F)F)c(Cl)n1", "note": "[Example 834, cis-4-(4-((cyclohexylmethyl)(2-(2,4-dichloro-6-methyl-3-pyridinyl)-2-oxoethyl)carbamoyl)-5-(trifluoromethyl)-1H-pyrazol-1-yl)cyclohexanecarboxylic acid]", "values": [{"measurement": "IC50", "value": 0.01, "unit": "µM"}]}, {"smiles": "O=C(c1cnn([C@H]2CC[C@H](C(=O)O)CC2)c1C(F)(F)F)N(CCc1cccc2[nH]ccc12)Cc1ccc(Cl)cc1", "note": "[Example 506, trans-4-(4-((4-chlorobenzyl)(2-(1H-indol-4-yl)ethyl)carbamoyl)-5-(trifluoromethyl)-1H-pyrazol-1-yl)cyclohexanecarboxylic acid]", "values": [{"measurement": "IC50", "value": 0.0692, "unit": "µM"}]}, {"smiles": "C[C@@H]1C[C@@H](n2ncc(C(=O)N(CC(=O)c3c(Cl)cncc3Cl)[C@H]3CCC34CCC4)c2C(F)(F)F)CC[C@@H]1C(=O)O", "note": "[Example 816, (1S,2R,4S)-4-(4-((2-(3,5-dichloro-4-pyridinyl)-2-oxoethyl)((1S)-spiro[3.3]hept-1-yl)carbamoyl)-5-(trifluoromethyl)-1H-pyrazol-1-yl)-2-methylcyclohexanecarboxylic acid]", "values": [{"measurement": "IC50", "value": 0.00447, "unit": "µM"}]}, {"smiles": "Cc1cc(Cl)c(C(=O)CN(CC(C)(C)C)C(=O)c2cnn([C@H]3CC[C@H](C(=O)O)CC3)c2C(F)(F)F)c(Cl)c1", "note": "[Example 517, trans-4-(4-((2-(2,6-dichloro-4-methylphenyl)-2-oxoethyl)(2,2-dimethylpropyl)carbamoyl)-5-(trifluoromethyl)-1H-pyrazol-1-yl)cyclohexanecarboxylic acid]", "values": [{"measurement": "IC50", "value": 0.0251, "unit": "µM"}]}, {"smiles": "C[C@]1(C(=O)O)CC[C@H](n2ncc(C(=O)N(CC(=O)c3c(Cl)cncc3Cl)CC3CCC3)c2C(F)(F)F)CC1", "note": "[Example 734, trans-4-(4-((cyclobutylmethyl)(2-(3,5-dichloro-4-pyridinyl)-2-oxoethyl)carbamoyl)-5-(trifluoromethyl)-1H-pyrazol-1-yl)-1-methylcyclohexanecarboxylic acid]", "values": [{"measurement": "IC50", "value": 0.01, "unit": "µM"}]}, {"smiles": "CC1(C)CC[C@@H]1N(CC(=O)c1c(Cl)cccc1Cl)C(=O)c1cnn([C@H]2CC[C@](C)(C(=O)O)CC2)c1C(F)(F)F", "note": "[Example 620]", "values": [{"measurement": "IC50", "value": 0.0389, "unit": "µM"}]}]}
